Data published in patent publication US6307108A, “Metal-ligand complex catalyzed processes” (Union Carbide Chemicals & Plastics Technology Corporation, priority 2000, dated 2001).

Assay: Heptane/acetonitrile partition (Kpartition) and extraction factor after hydroformylation
Type: physicochemical
Details: for Kpartition = amount of product in the heptane phase/amount of product in the acetonitrile phase: Examples 4, 6, 8, Ligand B reaction solution in heptane (2 milliliters) extracted with acetonitrile (2 milliliters), gas chromatography; for Kpartition = amount of material in the heptane phase/amount of material in the acetonitrile phase: room temperature; for extraction factor = Kpartition rhodium/Kpartition product: heptane/acetonitrile
Description: To the vessel was then added an equal volume of acetonitrile. The mixture was vigorously shaken for several minutes then allowed to settle and phase separate. The layers were then analyzed for rhodium content and hydroformylation product. The partition coefficient of the catalyst and the product, as defined bay Kpartition=amount of material in the heptane phase/amount of material in the acetonitrile phase, was then determined for each component.
A portion of the reaction solution (2 milliliters) was extracted with acetonitrile (2 milliliters). The phases were separated and the content of ethyl 11-formylundecanoate product was determined in both phases by gas chromatography.
A portion of the reaction solution (2 milliliters) was extracted with acetonitrile (2 milliliters). The phases were separated, and the content of methyl 11-formylundecanoate product in each phase was determined by gas chromatography.
A portion of the reaction solution (2 milliliters) was extracted with acetonitrile (2 milliliters). The phases were separated and the content of butyl 11-formylundecanoate product was determined in both phases by gas chromatography.
A portion of the reaction solution (5 mL) was diluted with heptane (10 mL), shaken at room temperature under nitrogen with acetonitrle (13 mL) and allowed to settle. Two phases with approximately equal volumes were analyzed for rhodium and the hydroformylation product. The partition coefficient of the catalyst and the product defined as Kpartition=amount of material in the heptane phase/amount of material in the acetonitrile phase was determined for each component.

Compound | Kpartition = amount of product in the heptane phase/amount of product in the acetonitrile phase | Kpartition = amount of material in the heptane phase/amount of material in the acetonitrile phase (Example 2, Example 1 reaction solution (Ligand A, ethyl 10-undecenoate), equal volume acetonitrile) | extraction factor = Kpartition rhodium/Kpartition product (Example 2) | Kpartition = amount of material in the heptane phase/amount of material in the acetonitrile phase (Example 9, Ligand A, methyl 10-undecenoate, 5 mL reaction solution diluted with heptane (10 mL), acetonitrile (13 mL)) | extraction factor = Kpartition rhodium/Kpartition product (Example 9)
CCCCOC(=O)CCCCCCCCCCC=O [butyl 11-formylundecanoate] | 0.56 | – | – | – | –
CCOC(=O)CCCCCCCCCCC=O [ethyl 11-formylundecanoate] | 0.25 | – | – | – | –
COC(=O)CCCCCCCCCCC=O [methyl 11-formylundecanoate] | 0.19 | – | – | – | –
rhodium | – | 170 | 680 | 166 | 976
